Data: patent US11590232B2, “Bioconjugates of neuropeptides derivatives” (CENTRE NATIONAL DE LA RECHERCHE SCIENTIFIQUE, priority 2018, dated 2023)

How the values were obtained:
[1] = In vivo imaging biodistribution (IVIS Lumina) in mice with λ-carrageenan-induced paw inflammation; design: species or system Swiss mice; conditions: i.v. injection, λ-carrageenan administered mice
Description: In parallel, control non-inflamed shaved mice (injected with 20 μL saline into the right hind paw, instead of λ-carrageenan), received also injection of fluorescent LENK-SQ NPs. The biodistribution of the NPs was recorded at 0.5, 2, 4, 6 and 24 h after excitation at 640 nm and emission in the 695-775 nm filter respectively, using IVIS Lumina LT series III system (Caliper, Life science). During imaging, the mice were kept on the imaging stage under anesthesia with 2% isoflurane gas in oxygen flow (1 L/min) and were imaged in ventral position. Images and measures of fluorescence signals were acquired and analyzed with Living Imaging®. To measure photon radiance, regions of interest (ROI, threshold of 35%) were selected on the paw of the mice and average radiant efficiency values were used for quantification. Threshold of ROI for the inflamed paw was then pasted on the non-inflamed paw to compare the radiance with the same region.

[2] = Dynamic light scattering (DLS) measurement of LENK-SQ NPs: size, zeta potential; format: physicochemical; conditions: in 0.1 mM KCl
Description: The mean particle size, polydispersity index (PDI) and zeta potential were primarily evaluated by DLS (Nano ZS, Malvern; 173° scattering angle at 25° C.).
The measurements were performed in triplicate following appropriate dilution of the nanoparticles in water (DLS) or in 0.1 mM KCl (zeta potential).

[3] = test system: central or peripheral opioid receptors; test: Opioid receptor blockade with naloxone or naloxone methiodide before agonist, Hargreaves test; format: in vivo, Sprague-Dawley rats; conditions: for reduction of AUC value by NaI pre-treatment compared with agonist alone: NaI (naloxone, brain-permeant) 0.5 mg/kg s.c. 15 min before agonist; for reduction of AUC value by NaI-M pre-treatment compared with agonist alone: NaI-M (naloxone methiodide, brain-impermeant) 0.5 mg/kg s.c. 15 min before agonist
[4] = 37° C.
Description: In the case of LENK-SQ-Diox NPs, diluted serum (30% in 5% dextrose solution) was used for the release study. […] To quantify the residual LENK-SQ bioconjugate and the released LENK, the resulting supernatants (150 μL) were evaporated to dryness at 40° C. under nitrogen flow, and then solubilized in 150 μL of Milli-Q water.

[5] = test system: thermal hyperalgesia in λ-carrageenan-treated rats; test: Hargreaves test (thermal nociceptive test) in λ-carrageenan-induced inflammatory pain; format: in vivo, Sprague-Dawley rats
[6] = diluted mouse serum (30% in 5% dextrose solution)

For `CCCCCCCCCCCCCCCCCCN1/C(=C/C=C/C=C/C2=[N+](CCCCCCCCCCCCCCCCCC)c3ccccc3C2(C)C)C(C)(C)c2ccccc21.[O-][Cl+3]([O-])([O-])[O-]` [DiD solution], the “accumulation of fluorescence in the inflamed paw” value [1] was “no significant accumulation of fluorescence”.

In the case of `CC(C)=CCC/C(C)=C/CC/C(C)=C/CC/C=C(\C)CC/C=C(\C)CCC(=O)NC(Cc1ccc(O)cc1)C(=O)NCC(=O)NCC(=O)NC(Cc1ccccc1)C(=O)NC(CC(C)C)C(=O)O` (centres unmarked) [LENK-SQ-Am, Leu-enkephalin-squalene Bioconjugate with Amide Spacer], the “zeta potential (sign of charge) of NPs” value [2] is reported as “negative”, the “reduction of AUC value by NaI pre-treatment compared with agonist alone” value [3] is reported as 73% and the “reduction of AUC value by NaI-M pre-treatment compared with agonist alone” value [3] is reported as 96%. For the same molecule, the “time stable in serum without significant decrease of bioconjugate” value ([4]; mouse serum) was at least 48 h.

For `CC(C)=CCC/C(C)=C/CC/C(C)=C/CC/C=C(\C)CC/C=C(\C)CCCOC(=O)COCC(=O)NC(Cc1ccc(O)cc1)C(=O)NCC(=O)NCC(=O)NC(Cc1ccccc1)C(=O)NC(CC(C)C)C(=O)O` (centres unmarked) [LENK-SQ-Dig, Leu-enkephalin-squalene Bioconjugate with diglycolic Spacer], the “zeta potential (sign of charge) of NPs” value [2] was “negative”, the “time of decline of PWL down to baseline” value ([5]; 20 mg/kg i.v., rats) was 220 min and the “release of free LENK peptide” value ([4]; mouse serum) was “no presence of free peptide was detected”. For the same molecule, the “time of complete disappearance of the bioconjugate” value ([4]; mouse serum) was 2 h.

For `CC(C)=CCC/C(C)=C/CC/C(C)=C/CC/C=C(\C)CC/C=C(\C)CCC(=O)OCOC(=O)C(CC(C)C)NC(=O)C(Cc1ccccc1)NC(=O)CNC(=O)CNC(=O)C(N)Cc1ccc(O)cc1` (centres unmarked) [LENK-SQ-Diox, Leu-Enkephalin-Squalene Bioconjugate with Dioxycarbonyl Spacer], the “zeta potential (sign of charge) of NPs” value [2] was “net positive charge”, the “reduction of AUC value by NaI pre-treatment compared with agonist alone” value [3] was 66% and the “reduction of AUC value by NaI-M pre-treatment compared with agonist alone” value [3] was 81%. For the same molecule, the “release of the free LENK peptide” value [4, 6] was “progressively released the free LENK peptide” and the “time till which the concentration of the bioconjugate decreased gradually” value [4, 6] was 7 h.

With `CN1CC[C@]23c4c5ccc(O)c4O[C@H]2[C@@H](O)C=C[C@H]3[C@H]1C5` [morphine] the “paw withdrawal latency (PWL)” value ([5]; 10 min post-injection, morphine 1 mg/kg, 3 h after λ-carrageenan, rats) was 12.87 ± 1.38 s, the “time post-administration at which no longer significant anti-hyperalgesic effect was observed” value ([5]; morphine 1 mg/kg, rats) was 100 min and the “maximal PWL values compared with basal PWL of control naïve rats” value ([5]; λ-carrageenan-treated rats) was “twice as high as those found in control naïve rats”.
